Assay results taken from PMC10033409, “Autoregulation of GPCR signalling through the third intracellular loop” (Nature, 2023).
Several values for one entry are separate records, joined by “and”; a condition that tells them apart may be missing. Equal values may be shown once.

How the values were obtained:
Untransfected = assay: Radiolabelled antagonist-binding assay (saturation), untransfected control sample; settings: fitted curve
Source text: Supplement 41586_2023_5789_MOESM3_ESM.xlsx, sheet "Extended Data Figure 3J"

β2AR = assay: Radiolabelled antagonist-binding assay (saturation); parameters: species or system human; Bmax / 125I-Cyanopindolol saturation binding signal: unit not given here; settings: for Bmax / fmol 125I-Cyanopindolol/mg sample: replicates 1-3 and Average; for fmol 125I-Cyanopindolol/mg sample, Fit: fitted curve;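 for all read-outs here: membranes expressing β2AR constructs, equilibrated with radioligand on ice, bound ligand retained on GF/C filters, Bmax normalized to membrane protein from a DC assay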
[1] = Sensor + Gs-peptide, 125I-Cyanopindolol 0.000239059 nM
[2] = Sensor + Gs-peptide, 125I-Cyanopindolol 0.0167722 nM
[3] = Sensor + Gs-peptide, 125I-Cyanopindolol 0.0344858 nM
[4] = Sensor + Gs-peptide, 125I-Cyanopindolol 0.073983 nM
[5] = Sensor + Gs-peptide, 125I-Cyanopindolol 0.202201 nM
[6] = Sensor + Gs-peptide, 125I-Cyanopindolol 0.415365 nM
[7] = Sensor + Gs-peptide, 125I-Cyanopindolol 0.83063 nM
[8] = Sensor + Gs-peptide, 125I-Cyanopindolol 1.64238 nM

## [^125I](±)-cyanopindolol
Untransfected; 125I-Cyanopindolol 0.0198458 nM (Average)
  fmol 125I-Cyanopindolol/mg sample, Fit: 7.834e-5 fmol/mg sample
Untransfected; 125I-Cyanopindolol 0.0420593 nM (Average)
  fmol 125I-Cyanopindolol/mg sample, Fit: 0.0001875 fmol/mg sample
Untransfected; 125I-Cyanopindolol 0.234223 nM (Average)
  fmol 125I-Cyanopindolol/mg sample, Fit: 0.05859 fmol/mg sample
Untransfected; 125I-Cyanopindolol 0.468204 nM (Average)
  fmol 125I-Cyanopindolol/mg sample, Fit: 1.044 fmol/mg sample
Untransfected; 125I-Cyanopindolol 0.871756 nM (Average)
  fmol 125I-Cyanopindolol/mg sample, Fit: 13.7262 fmol/mg sample
Untransfected; 125I-Cyanopindolol 1.70257 nM (Average)
  fmol 125I-Cyanopindolol/mg sample, Fit: 172.555 fmol/mg sample
β2AR; Sensor + Gs-pep
  Bmax: 1992.85 and 2334.87 and 1180.14
β2AR; [1]
  fmol 125I-Cyanopindolol/mg sample, Fit: 0.00E+00 fmol/mg sample
  fmol 125I-Cyanopindolol/mg sample: -1.828 fmol/mg sample and 0.6291 fmol/mg sample and 0.5155 fmol/mg sample
β2AR; [2]
  fmol 125I-Cyanopindolol/mg sample, Fit: 3.85E+02 fmol/mg sample
  fmol 125I-Cyanopindolol/mg sample: 331.932 fmol/mg sample and 483.578 fmol/mg sample and 237.189 fmol/mg sample
β2AR; [3]
  fmol 125I-Cyanopindolol/mg sample, Fit: 6.37E+02 fmol/mg sample
  fmol 125I-Cyanopindolol/mg sample: 633.08 fmol/mg sample and 885.671 fmol/mg sample and 427.455 fmol/mg sample
β2AR; [4]
  fmol 125I-Cyanopindolol/mg sample, Fit: 9.68E+02 fmol/mg sample
  fmol 125I-Cyanopindolol/mg sample: 973.823 fmol/mg sample and 1370.71 fmol/mg sample and 652.022 fmol/mg sample
β2AR; [5]
  fmol 125I-Cyanopindolol/mg sample, Fit: 1.38E+03 fmol/mg sample
  fmol 125I-Cyanopindolol/mg sample: 1415.68 fmol/mg sample and 1842.87 fmol/mg sample and 880.16 fmol/mg sample
β2AR; [6]
  fmol 125I-Cyanopindolol/mg sample, Fit: 1.58E+03 fmol/mg sample
  fmol 125I-Cyanopindolol/mg sample: 1527.87 fmol/mg sample and 2049.46 fmol/mg sample and 1008.05 fmol/mg sample
β2AR; [7]
  fmol 125I-Cyanopindolol/mg sample, Fit: 1.71E+03 fmol/mg sample
  fmol 125I-Cyanopindolol/mg sample: 1817.18 fmol/mg sample and 2238.94 fmol/mg sample and 1107.54 fmol/mg sample
β2AR; [8]
  fmol 125I-Cyanopindolol/mg sample, Fit: 1.78E+03 fmol/mg sample
  fmol 125I-Cyanopindolol/mg sample: 1925.74 fmol/mg sample and 2301.14 fmol/mg sample and 1169.54 fmol/mg sample
β2AR; Sensor + Gs-peptide, 125I-Cyanopindolol 1.64238 nM, mean
  fmol 125I-Cyanopindolol/mg sample: 1798.81 fmol/mg sample
β2AR; Sensor, 125I-Cyanopindolol 0.0198458 nM (Average)
  fmol 125I-Cyanopindolol/mg sample, Fit: 3.34E+02 fmol/mg sample
β2AR; Sensor, 125I-Cyanopindolol 0.0420593 nM (Average)
  fmol 125I-Cyanopindolol/mg sample, Fit: 5.96E+02 fmol/mg sample
β2AR; Sensor, 125I-Cyanopindolol 0.234223 nM (Average)
  fmol 125I-Cyanopindolol/mg sample, Fit: 1.38E+03 fmol/mg sample
β2AR; Sensor, 125I-Cyanopindolol 0.468204 nM (Average)
  fmol 125I-Cyanopindolol/mg sample, Fit: 1.60E+03 fmol/mg sample
β2AR; Sensor, 125I-Cyanopindolol 0.871756 nM (Average)
  fmol 125I-Cyanopindolol/mg sample, Fit: 1.73E+03 fmol/mg sample
β2AR; Sensor, 125I-Cyanopindolol 1.70257 nM (Average)
  fmol 125I-Cyanopindolol/mg sample, Fit: 1.81E+03 fmol/mg sample
β2AR; Sensor
  Bmax: 1914.14 and 2557.54 and 1116.04
β2AR; ∆ICL3 + 30 µM Q, 0.0283 nM, Average
  125I-Cyanopindolol saturation binding signal: 236.51
β2AR; ∆ICL3 + 30 µM Q, 0.0283 nM, Fit
  125I-Cyanopindolol saturation binding signal: 285.20
β2AR; ∆ICL3 + 30 µM Q, 0.0283 nM, experiments 1-3
  125I-Cyanopindolol saturation binding signal: 222.98 and 255.55 and 231.00
β2AR; ∆ICL3 + 30 µM Q, 0.0474 nM, Average
  125I-Cyanopindolol saturation binding signal: 366.56
β2AR; ∆ICL3 + 30 µM Q, 0.0474 nM, Fit
  125I-Cyanopindolol saturation binding signal: 463.24
β2AR; ∆ICL3 + 30 µM Q, 0.0474 nM, experiments 1-3
  125I-Cyanopindolol saturation binding signal: 296.41 and 421.89 and 381.36
β2AR; ∆ICL3 + 30 µM Q, 0.10 nM, Average
  125I-Cyanopindolol saturation binding signal: 910.97
β2AR; ∆ICL3 + 30 µM Q, 0.10 nM, Fit
  125I-Cyanopindolol saturation binding signal: 816.24
β2AR; ∆ICL3 + 30 µM Q, 0.10 nM, experiments 1-3
  125I-Cyanopindolol saturation binding signal: 840.60 and 993.89 and 898.42
β2AR; ∆ICL3 + 30 µM Q, 1.85 nM, Average
  125I-Cyanopindolol saturation binding signal: 1906.34
β2AR; ∆ICL3 + 30 µM Q, 1.85 nM, Fit
  125I-Cyanopindolol saturation binding signal: 1809.97
β2AR; ∆ICL3 + 30 µM Q, 1.85 nM, experiments 1-3
  125I-Cyanopindolol saturation binding signal: 1586.99 and 2170.25 and 1961.77
β2AR; ∆ICL3, 0.0283 nM, Average
  125I-Cyanopindolol saturation binding signal: 126.54
β2AR; ∆ICL3, 0.0283 nM, Fit
  125I-Cyanopindolol saturation binding signal: 399.52
β2AR; ∆ICL3, 0.0283 nM, experiments 1-3
  125I-Cyanopindolol saturation binding signal: 94.88 and 85.74
β2AR; ∆ICL3, 0.0474 nM, Average
  125I-Cyanopindolol saturation binding signal: 687.11
β2AR; ∆ICL3, 0.0474 nM, Fit
  125I-Cyanopindolol saturation binding signal: 612.62
β2AR; ∆ICL3, 0.10 nM, Average
  125I-Cyanopindolol saturation binding signal: 1201.35
β2AR; ∆ICL3, 0.10 nM, Fit
  125I-Cyanopindolol saturation binding signal: 1024.98
β2AR; ∆ICL3, 1.85 nM, Average
  125I-Cyanopindolol saturation binding signal: 2504.14
β2AR; ∆ICL3, 1.85 nM, Fit
  125I-Cyanopindolol saturation binding signal: 2413.51
β2AR; ∆ICL3, 1.85 nM, experiments 1-3
  125I-Cyanopindolol saturation binding signal: 2561.55 and 2855.56 and 2095.33
